Laboratory results from ChEMBL document CHEMBL1255299, “Killing of Neisseria gonorrhoeae, Streptococcus agalactiae (group B streptococcus), Haemophilus ducreyi, and vaginal Lactobacillus by 3-O-octyl-sn-glycerol” (2008).
Active and inactive are the calls of the source. The calls are words filed in the database; no cut-off is given here.

Experiments:
Neisseria gonorrhoeae [1] = test: Microbicidal activity against Neisseria gonorrhoeae ATCC 49226 after 30 mins; format: functional; details: ATCC 49226, 0.5 h
Neisseria gonorrhoeae [2] = test: Microbicidal activity against Neisseria gonorrhoeae ATCC 19424 after 30 mins; format: functional; details: ATCC 19424, 0.5 h
Lactobacillus crispatus [3] = test: Microbicidal activity against Lactobacillus crispatus after 30 mins; format: functional; details: 0.5 h
Lactobacillus jensenii [4] = test: Microbicidal activity against Lactobacillus jensenii after 30 mins; format: functional; details: 0.5 h
Lactobacillus iners = test: Microbicidal activity against Lactobacillus iners after 30 mins; format: functional
Lactobacillus vaginalis = test: Microbicidal activity against Lactobacillus vaginalis after 30 mins; format: functional
Streptococcus agalactiae [5] = test: Microbicidal activity against Streptococcus agalactiae serotype 1A after 30 mins; format: functional; details: serotype IA, 0.5 h
Streptococcus agalactiae [6] = test: Microbicidal activity against Streptococcus agalactiae serotype 1B after 30 mins; format: functional; details: 0.5 h
Streptococcus agalactiae [7] = test: Microbicidal activity against Streptococcus agalactiae serotype II after 30 mins; format: functional; details: 0.5 h
Streptococcus agalactiae [8] = test: Microbicidal activity against Streptococcus agalactiae serotype III after 30 mins; format: functional; details: 0.5 h
Streptococcus agalactiae [9] = test: Microbicidal activity against Streptococcus agalactiae serotype IV after 30 mins; format: functional; details: 0.5 h
Streptococcus agalactiae [10] = test: Microbicidal activity against Streptococcus agalactiae serotype V after 30 mins; format: functional; details: 0.5 h
[Haemophilus] ducreyi = Microbicidal activity against Haemophilus ducreyi after 30 mins; format: functional; details: 0.5 h
Lactobacillus crispatus [11] = test: Antimicrobial activity against Lactobacillus crispatus ATCC 33197 at 4.4 mM in presence of 0.7 mM human serum albumin; format: functional
Lactobacillus crispatus [12] = test: Antimicrobial activity against Lactobacillus crispatus ATCC 33197 at 4.4 mM in presence of 0.6 mM human serum albumin; format: functional
Lactobacillus crispatus [13] = test: Antimicrobial activity against Lactobacillus crispatus ATCC 33197 at 4.4 mM in presence of 0.5 mM human serum albumin; format: functional
Lactobacillus crispatus [14] = test: Antimicrobial activity against Lactobacillus crispatus ATCC 33197 at 4.4 mM in presence of 0.4 mM human serum albumin; format: functional
Lactobacillus crispatus [15] = test: Antimicrobial activity against Lactobacillus crispatus ATCC 33197 at 4.4 mM in presence of 0.3 mM human serum albumin; format: functional
Lactobacillus crispatus [16] = test: Antimicrobial activity against Lactobacillus crispatus ATCC 33197 at 4.4 mM in presence of 0.2 mM human serum albumin; format: functional
Lactobacillus crispatus [17] = test: Antimicrobial activity against Lactobacillus crispatus ATCC 33197 at 4.4 mM in presence of 0.1 mM human serum albumin; format: functional
Lactobacillus crispatus [18] = test: Antimicrobial activity against Lactobacillus crispatus ATCC 33197 at 4.4 mM in presence of 0.05 mM human serum albumin; format: functional
Lactobacillus crispatus [19] = test: Antimicrobial activity against Lactobacillus crispatus ATCC 20225 at 4.4 mM in presence of 0.7 mM human serum albumin; format: functional
Lactobacillus crispatus [20] = test: Antimicrobial activity against Lactobacillus crispatus ATCC 20225 at 4.4 mM in presence of 0.6 mM human serum albumin; format: functional
Lactobacillus crispatus [21] = test: Antimicrobial activity against Lactobacillus crispatus ATCC 20225 at 4.4 mM in presence of 0.5 mM human serum albumin; format: functional
Lactobacillus crispatus [22] = test: Antimicrobial activity against Lactobacillus crispatus ATCC 20225 at 4.4 mM in presence of 0.4 mM human serum albumin; format: functional
Lactobacillus crispatus [23] = test: Antimicrobial activity against Lactobacillus crispatus ATCC 20225 at 4.4 mM in presence of 0.3 mM human serum albumin; format: functional
Lactobacillus crispatus [24] = test: Antimicrobial activity against Lactobacillus crispatus ATCC 20225 at 4.4 mM in presence of 0.2 mM human serum albumin; format: functional
Lactobacillus crispatus [25] = test: Antimicrobial activity against Lactobacillus crispatus ATCC 20225 at 4.4 mM in presence of 0.1 mM human serum albumin; format: functional
Lactobacillus crispatus [26] = test: Antimicrobial activity against Lactobacillus crispatus ATCC 20225 at 4.4 mM in presence of 0.05 mM human serum albumin; format: functional
Lactobacillus jensenii [27] = test: Antimicrobial activity against Lactobacillus jensenii ATCC 25258 at 4.4 mM in presence of 0.7 mM human serum albumin; format: functional
Lactobacillus jensenii [28] = test: Antimicrobial activity against Lactobacillus jensenii ATCC 25258 at 4.4 mM in presence of 0.6 mM human serum albumin; format: functional
Lactobacillus jensenii [29] = test: Antimicrobial activity against Lactobacillus jensenii ATCC 25258 at 4.4 mM in presence of 0.5 mM human serum albumin; format: functional
Lactobacillus jensenii [30] = test: Antimicrobial activity against Lactobacillus jensenii ATCC 25258 at 4.4 mM in presence of 0.4 mM human serum albumin; format: functional
Lactobacillus jensenii [31] = test: Antimicrobial activity against Lactobacillus jensenii ATCC 25258 at 4.4 mM in presence of 0.3 mM human serum albumin; format: functional
Lactobacillus jensenii [32] = test: Antimicrobial activity against Lactobacillus jensenii ATCC 25258 at 4.4 mM in presence of 0.2 mM human serum albumin; format: functional
Lactobacillus jensenii [33] = test: Antimicrobial activity against Lactobacillus jensenii ATCC 25258 at 4.4 mM in presence of 0.1 mM human serum albumin; format: functional
Lactobacillus jensenii [34] = test: Antimicrobial activity against Lactobacillus jensenii ATCC 25258 at 4.4 mM in presence of 0.05 mM human serum albumin; format: functional
Neisseria gonorrhoeae [35] = test: Antimicrobial activity against Neisseria gonorrhoeae ATCC 49226 at 4.4 mM in presence of 0.7 mM human serum albumin; format: functional, organism-based
Neisseria gonorrhoeae [36] = test: Antimicrobial activity against Neisseria gonorrhoeae ATCC 49226 at 4.4 mM in presence of 0.6 mM human serum albumin; format: functional, organism-based
Neisseria gonorrhoeae [37] = test: Antimicrobial activity against Neisseria gonorrhoeae ATCC 49226 at 4.4 mM in presence of 0.5 mM human serum albumin; format: functional, organism-based
Neisseria gonorrhoeae [38] = test: Antimicrobial activity against Neisseria gonorrhoeae ATCC 49226 at 4.4 mM in presence of 0.4 mM human serum albumin; format: functional, organism-based
Neisseria gonorrhoeae [39] = test: Antimicrobial activity against Neisseria gonorrhoeae ATCC 49226 at 4.4 mM in presence of 0.3 mM human serum albumin; format: functional, organism-based
Neisseria gonorrhoeae [40] = test: Antimicrobial activity against Neisseria gonorrhoeae ATCC 49226 at 4.4 mM in presence of 0.2 mM human serum albumin; format: functional, organism-based
Neisseria gonorrhoeae [41] = test: Antimicrobial activity against Neisseria gonorrhoeae ATCC 49226 at 4.4 mM in presence of 0.1 mM human serum albumin; format: functional, organism-based
Neisseria gonorrhoeae [42] = test: Antimicrobial activity against Neisseria gonorrhoeae ATCC 49226 at 4.4 mM in presence of 0.05 mM human serum albumin; format: functional, organism-based
Pseudomonas aeruginosa [43] = test: Antimicrobial activity against Pseudomonas aeruginosa at 4.4 mM in presence of 0.6 mM delipidated human serum albumin; format: functional, organism-based
Pseudomonas aeruginosa [44] = test: Antimicrobial activity against Pseudomonas aeruginosa at 4.4 mM in presence of 0.5 mM delipidated human serum albumin; format: functional, organism-based
Pseudomonas aeruginosa [45] = test: Antimicrobial activity against Pseudomonas aeruginosa at 4.4 mM in presence of 0.4 mM delipidated human serum albumin; format: functional, organism-based
Pseudomonas aeruginosa [46] = test: Antimicrobial activity against Pseudomonas aeruginosa at 4.4 mM in presence of 0.3 mM delipidated human serum albumin; format: functional, organism-based
Pseudomonas aeruginosa [47] = test: Antimicrobial activity against Pseudomonas aeruginosa at 4.4 mM in presence of 0.2 mM delipidated human serum albumin; format: functional, organism-based
Pseudomonas aeruginosa [48] = test: Antimicrobial activity against Pseudomonas aeruginosa at 4.4 mM in presence of 0.1 mM delipidated human serum albumin; format: functional, organism-based
Pseudomonas aeruginosa [49] = test: Antimicrobial activity against Pseudomonas aeruginosa at 4.4 mM in presence of 0.6 mM human serum albumin; format: functional, organism-based
Pseudomonas aeruginosa [50] = test: Antimicrobial activity against Pseudomonas aeruginosa at 4.4 mM in presence of 0.5 mM human serum albumin; format: functional, organism-based
Pseudomonas aeruginosa [51] = test: Antimicrobial activity against Pseudomonas aeruginosa at 4.4 mM in presence of 0.4 mM human serum albumin; format: functional, organism-based
Pseudomonas aeruginosa [52] = test: Antimicrobial activity against Pseudomonas aeruginosa at 4.4 mM in presence of 0.3 mM human serum albumin; format: functional, organism-based
Pseudomonas aeruginosa [53] = test: Antimicrobial activity against Pseudomonas aeruginosa at 4.4 mM in presence of 0.2 mM human serum albumin; format: functional, organism-based
Pseudomonas aeruginosa [54] = test: Antimicrobial activity against Pseudomonas aeruginosa at 4.4 mM in presence of 0.1 mM human serum albumin; format: functional, organism-based

SMILES: CCCCCCCCOC[C@H](O)CO
- MCC (Neisseria gonorrhoeae [1]): 2.5 mM
- MCC (Neisseria gonorrhoeae [2]): 2.5 mM
- MCC (Lactobacillus crispatus [3]): 5 mM
- MCC (Lactobacillus jensenii [4]): 5 mM
- MCC (Lactobacillus iners): 5 mM
- MCC (Lactobacillus vaginalis): > 10 mM
- MCC (Streptococcus agalactiae [5]): 5 mM
- MCC (Streptococcus agalactiae [6]): 5 mM
- MCC (Streptococcus agalactiae [7]): 5 mM
- MCC (Streptococcus agalactiae [8]): 5 mM
- MCC (Streptococcus agalactiae [9]): 5 mM
- MCC (Streptococcus agalactiae [10]): 5 mM
- MCC ([Haemophilus] ducreyi): 1.25 mM
- Activity (Lactobacillus crispatus [11]): inactive
- Activity (Lactobacillus crispatus [12]): inactive
- Activity (Lactobacillus crispatus [13]): inactive
- Activity (Lactobacillus crispatus [14]): inactive
- Activity (Lactobacillus crispatus [15]): inactive
- Activity (Lactobacillus crispatus [16]): Active
- Activity (Lactobacillus crispatus [17]): Active
- Activity (Lactobacillus crispatus [18]): Active
- Activity (Lactobacillus crispatus [19]): inactive
- Activity (Lactobacillus crispatus [20]): inactive
- Activity (Lactobacillus crispatus [21]): inactive
- Activity (Lactobacillus crispatus [22]): inactive
- Activity (Lactobacillus crispatus [23]): inactive
- Activity (Lactobacillus crispatus [24]): Active
- Activity (Lactobacillus crispatus [25]): Active
- Activity (Lactobacillus crispatus [26]): Active
- Activity (Lactobacillus jensenii [27]): inactive
- Activity (Lactobacillus jensenii [28]): inactive
- Activity (Lactobacillus jensenii [29]): inactive
- Activity (Lactobacillus jensenii [30]): inactive
- Activity (Lactobacillus jensenii [31]): Active
- Activity (Lactobacillus jensenii [32]): Active
- Activity (Lactobacillus jensenii [33]): Active
- Activity (Lactobacillus jensenii [34]): Active
- Activity (Neisseria gonorrhoeae [35]): inactive
- Activity (Neisseria gonorrhoeae [36]): Active
- Activity (Neisseria gonorrhoeae [37]): Active
- Activity (Neisseria gonorrhoeae [38]): Active
- Activity (Neisseria gonorrhoeae [39]): Active
- Activity (Neisseria gonorrhoeae [40]): Active
- Activity (Neisseria gonorrhoeae [41]): Active
- Activity (Neisseria gonorrhoeae [42]): Active
- Activity (Pseudomonas aeruginosa [43]): inactive
- Activity (Pseudomonas aeruginosa [44]): inactive
- Activity (Pseudomonas aeruginosa [45]): inactive
- Activity (Pseudomonas aeruginosa [46]): inactive
- Activity (Pseudomonas aeruginosa [47]): inactive
- Activity (Pseudomonas aeruginosa [48]): Active
- Activity (Pseudomonas aeruginosa [49]): inactive
- Activity (Pseudomonas aeruginosa [50]): inactive
- Activity (Pseudomonas aeruginosa [51]): Active
- Activity (Pseudomonas aeruginosa [52]): Active
- Activity (Pseudomonas aeruginosa [53]): Active
- Activity (Pseudomonas aeruginosa [54]): Active

SMILES: CCCCCCCCOC[C@@H](O)CO
- MCC (Neisseria gonorrhoeae [1]): 2.5 mM
- MCC (Neisseria gonorrhoeae [2]): 2.5 mM
- MCC (Lactobacillus crispatus [3]): 5 mM
- MCC (Lactobacillus jensenii [4]): 3 mM
- MCC (Lactobacillus iners): 4 mM
